Results from the supplement of paper PMC10307832.

Key:
Assay in all cases: relative viability (nuclei count vs DMSO), 5 days (fraction); higher = more cells survive
[1] = compound: COc1cc2nccc(Oc3ccc(NC(=O)C4(C(=O)Nc5ccc(F)cc5)CC4)cc3)c2cc1OC [Cabozantinib] + CC1(C)CCC(c2ccc(Cl)cc2)=C(CN2CCN(c3ccc(C(=O)NS(=O)(=O)c4ccc(N[C@H](CCN5CCOCC5)CSc5ccccc5)c(S(=O)(=O)C(F)(F)F)c4)cc3)CC2)C1 [Navitoclax] (partner 0.5 µM)
Outline: (§1)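 Relative viability divides the nuclei count in treated wells by that in vehicle wells. Lung cancer cell lines were seeded in 1536-well plates, dosed by pin tool the next day, and fixed and stained after 5 days in one step with final 0.05% Triton X-100, 1% formaldehyde and 1 ug/ml Hoechst. Dosing was a single drug or a fixed anchor-drug dose plus five library-drug doses (not always all listed) in √10 steps, and values are medians of duplicate plates imaged at 4×.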

Kobe2602 + Luminespib = compound: C1=CC(=CC=C1NC(=S)NNC2=C(C=C(C=C2[N+](=O)[O-])C(F)(F)F)[N+](=O)[O-])F [Kobe2602] + CCNC(=O)c1noc(-c2cc(C(C)C)c(O)cc2O)c1-c1ccc(CN2CCOCC2)cc1 [Luminespib] (partner 0.01 µM)
Outline: as §1

Zosuquidar + OSI-027 = compound: O[C@@H](COc1cccc2ncccc12)CN1CCN([C@@H]2c3ccccc3[C@@H]3[C@H](c4ccccc42)C3(F)F)CC1 [Zosuquidar] + COc1cccc2cc(-c3nc([C@H]4CC[C@H](C(=O)O)CC4)n4ncnc(N)c34)[nH]c12 [OSI-027] (partner 0.5 µM)
Outline: as §1

Kobe2602 + Lapatinib = compound: C1=CC(=CC=C1NC(=S)NNC2=C(C=C(C=C2[N+](=O)[O-])C(F)(F)F)[N+](=O)[O-])F [Kobe2602] + CS(=O)(=O)CCNCc1ccc(-c2ccc3ncnc(Nc4ccc(OCc5cccc(F)c5)c(Cl)c4)c3c2)o1 [Lapatinib] (partner 2 µM)
Outline: as §1

Row | Cell Line | relative viability ([1]; first compound 0.02 µM) | relative viability ([1]; first compound 0.06325 µM) | relative viability ([1]; first compound 0.2 µM) | relative viability ([1]; first compound 0.6325 µM) | relative viability ([1]; first compound 2 µM) | relative viability (Kobe2602 + Luminespib; first compound 0.2 µM) | relative viability (Kobe2602 + Luminespib; first compound 0.6325 µM) | relative viability (Kobe2602 + Luminespib; first compound 2 µM) | relative viability (Kobe2602 + Luminespib; first compound 6.325 µM) | relative viability (Kobe2602 + Luminespib; first compound 20 µM) | relative viability (Zosuquidar + OSI-027; first compound 0.01 µM) | relative viability (Zosuquidar + OSI-027; first compound 0.03162 µM) | relative viability (Zosuquidar + OSI-027; first compound 0.1 µM) | relative viability (Zosuquidar + OSI-027; first compound 0.3162 µM) | relative viability (Zosuquidar + OSI-027; first compound 1 µM) | relative viability (Kobe2602 + Lapatinib; first compound 0.2 µM) | relative viability (Kobe2602 + Lapatinib; first compound 0.6325 µM) | relative viability (Kobe2602 + Lapatinib; first compound 2 µM) | relative viability (Kobe2602 + Lapatinib; first compound 6.325 µM) | relative viability (Kobe2602 + Lapatinib; first compound 20 µM)
1 | EMC-BAC-2 | 1.16 | 1.36 | 1.2 | 1.14 | 1.22 | 1.16 | 1.16 | 1.13 | 1.31 | 1.14 | 0.365 | 0.365 | 0.373 | 0.435 | 0.376 | 0.89 | 0.935 | 0.904 | 0.904 | 0.909
2 | NCI-H1395 | 1.13 | 1.1 | 1.41 | 1.12 | 1.12 | 0.691 | 0.869 | 0.815 | 0.726 | 0.662 | 0.653 | 0.578 | 0.552 | 0.797 | 0.677 | 0.925 | 1.04 | 1.01 | 1.18 | 1.12
3 | NCI-H23 | – | 0.913 | 0.972 | 0.71 | 0.644 | 0.248 | 0.201 | 0.227 | 0.214 | 0.202 | 0.644 | 0.636 | 0.525 | 0.705 | 0.641 | 0.999 | 1.36 | 1.08 | 1.05 | 1.07
4 | NCI-H322M | 1.24 | 1.4 | – | 1.2 | 1.19 | 0.895 | 0.944 | 0.855 | 0.478 | 1.06 | 0.529 | 0.67 | 0.485 | 0.66 | 0.575 | 0.588 | 0.648 | 0.652 | 0.571 | 0.647
5 | NCI-H2126 | 0.828 | 0.84 | 0.869 | 0.831 | 0.896 | 0.947 | 0.976 | 0.895 | 0.884 | 0.825 | 0.736 | 0.982 | – | 0.684 | 0.787 | 0.751 | 0.775 | 0.778 | 0.725 | 0.759
6 | NCI-H647 | 0.994 | 1.15 | 1.06 | 1.11 | 0.886 | 0.259 | 0.188 | 0.152 | 0.112 | 0.225 | 0.64 | 0.63 | 0.552 | 0.886 | 0.723 | 1.09 | 0.937 | 0.943 | 0.938 | 1.01
7 | LU99A | 0.774 | 0.9 | 0.762 | 0.686 | 0.783 | 0.281 | 0.29 | 0.227 | 0.2 | 0.343 | 0.279 | 0.276 | 0.253 | 0.322 | 0.288 | 0.989 | 0.921 | 0.959 | 0.97 | 1.07
8 | NCI-H1666 | 0.889 | 1.16 | 0.887 | 0.996 | 1.13 | 0.975 | 1.08 | 1 | 1.05 | 1.08 | 0.844 | 0.919 | 0.8 | 0.957 | 0.957 | 0.639 | 0.659 | – | 0.468 | 0.592
9 | NCI-H596 | 1.22 | 1.2 | 0.861 | 0.829 | 0.729 | 1.03 | 0.922 | 1.03 | 0.844 | 0.873 | 0.714 | – | 0.724 | 1.01 | 0.689 | 1.18 | 1.19 | 1.05 | 0.934 | 1.17
